# In patent US8063018B2, “Bivalent thrombin binding molecules comprising linkers” (National Research Council of Canada, priority 2004, dated 2011):
# Biological target: thrombin (Homo sapiens, UniProt P00734)
# Assay: Fibrinogen clotting assay catalyzed by thrombin
# Type: biochemical
# Details: for IC50: concentration needed to double the clotting time
# Description: Curves represent OD420 time course after the addition of 0.6 nM thrombin in the presence of (♦) 0 nM; (◯) 0.5 nM; (□) 1 nM; (Δ) 1.5 nM; (⋄) 2.5 nM; (●) 3.75 nM; (▪) 6.25 nM; and (▴) […] of the inhibitor with linker (GS)n and n=2 (SEQ. ID. NO. 50) (a); n=4 (SEQ. ID. NO. 51) (b); n=6 (SEQ. ID. NO. 52) (c); n=8 (SEQ. ID. NO. 53) (d); n=10 (SEQ. ID. NO. 54) (e); and in the presence of (♦) 0 nM; (◯) 1 nM; (□) 2 nM; (Δ) 4 nM; (⋄) 6 nM; (●) 10 nM; (▪) 15 nM; and (▴) 25 nM of the inhibitor with linker (GS)n and n=12 (SEQ. ID. NO. 55) (f); n=14 (SEQ. ID. NO. 56) (g), at 37° C. The onset clotting time was determined as an intersection of the baseline and the extrapolated linear portion of the OD change curve. […] Curves (i) represent OD420 time course in the presence of (A) 0 nM; (◯) 1 nM; (□) 2 nM; (Δ) 4 nM; (⋄) 6 nM; and (●) 15 nM of the inhibitor with linker […] (SEQ. ID. NO. 103), at 37° C. […] represent OD420 time course in the presence of (◯) 0 nM; (□) 2 nM; (Δ) 4 nM; (⋄) 6 nM; (●) 8 nM; (▪) 10 nM; (▴) 12 nM; and (♦) 15 nM; of the inhibitor with linker […] (SEQ. ID. NO. 58) at 25° C. Curves (k) represent OD420 time course in the presence of (◯) 0 nM; (□) 0.5 nM; (Δ) 1 nM; (⋄) 2 nM; (●) 3 nM; (▪) 4 nM; (▴) 5 nM; and (♦) 6 nM; of the inhibitor with linker […] (SEQ. ID. NO. 105) at 37° C. Curves (I) represent OD420 time course in the presence of (◯) 0 nM; (□) 0.25 nM; (Δ) 0.5 nM; (⋄) 1 nM; (●) 1.5 nM; (▪) 2 nM; and (▴) 2.5 nM; of the inhibitor with linker […] (SEQ. ID. NO. 104) at 37° C. Curves (m) represent OD420 time course in the presence of (◯) 0 nM; (□) 2 nM; (Δ) 4 nM; (⋄) 6 nM; (●) 8 nM; (▴) 10 nM; and (A) 12 nM; of the inhibitor with linker […] (SEQ. ID. NO. 106) at 37° C. Curves (n) represent OD420 time course in the presence of (◯) 0 nM; (□) 1 nM; (Δ) 2 nM; (⋄) 3 nM; (●) 4 nM; (▪) 5 nM; (▴) 6 nM; and (♦) 7 nM; of the inhibitor with linker […] (SEQ. ID. NO. 107) at 37° C. Curves (o) represent OD420 time course in the presence of (◯) 0 nM; (□) 4 nM; and (Δ) 8 nM; of the inhibitor with linker GQSHNR (SEQ. ID. NO. 108) at 37° C.
# Other experimental conditions were as used for the assays described in FIG. 2.
# Clotting assays were carried out by use of the protocols described previously (DiMaio and others, 1990, 21698-21703; Witting and others, 1992, 737-743). The assay employs bovine plasma fibrinogen dissolved at 0.1% in 50 mM Tris-Cl, 100 mM NaCl, 0.1% PEG-8000 at pH 7.6 (i.e. the clotting buffer). Each assay mixture contained a certain concentration of the peptide, and the reaction was started by the addition of human thrombin to a final concentration of 0.6-1.2 nM. Optical absorbance increase at 420 nm caused by fibrin clot formation was measured at 25° C. or 37° C. using the Spectramax plate reader. The onset clotting time was determined as an intersection of the baseline and the extrapolated linear portion of the OD change curve. The concentration of a peptide needed to double the clotting time was defined as IC50 (DiMaio and others, 1990, 21698-21703). Kinetic amidolytic curves were obtained in clotting buffer at 25° C. using eight inhibitor concentrations and three to five concentrations of the chromogenic substrate S-2238 (Chromogenix) (DiMaio and others, 1990, 21698-21703). Inhibition constants were extracted from Lineweaver-Burk equation by using weighted linear regression. Errors in Ki determination were estimated by using Monte-Carlo sampling with 1-3% variance of the experimental points.
Compound,"IC50 (IC50, nM (37° C.), 37° C.) [nM]","IC50 (IC50, nM (25° C.), 25° C.) [nM]","Effect of SAP-SH2 on thrombin inhibition (25 nM inhibitor, 5 and 10 μM SAP-SH2, 25° C.)"
CC[C@H](C)[C@H](NC(=O)[C@H](CCC(=O)O)NC(=O)[C@H](CCC(=O)O)NC(=O)[C@H](Cc1ccccc1)NC(=O)[C@H](CC(=O)O)NC(=O)CNC(=O)[C@H](CC(N)=O)NC(=O)[C@H](CO)NC(=O)[C@@H](NC(=O)[C@H](CCCCN)NC(=O)[C@H](CC(=O)O)NC(=O)[C@@H](NC(=O)[C@@H]1CCCN1C(=O)[C@@H](NC(=O)[C@H](CC(N)=O)NC(=O)[C@H](CC(C)C)NC(=O)[C@H](CC(=O)O)NC(=O)[C@H](CC(C)C)NC(=O)[C@@H](NC(=O)CNC(=O)[C@H]1CCCCN1C(=O)[C@H](CCCNC(=N)N)NS(=O)(=O)c1ccc(C(C)(C)C)cc1)[C@@H](C)O)[C@@H](C)O)C(C)C)[C@@H](C)O)C(=O)N1CCC[C@H]1C(=O)N[C@@H](CCC(=O)O)C(=O)N[C@@H](CCC(=O)O)C(=O)N[C@@H](Cc1ccc(O)cc1)C(=O)N[C@@H](CC(C)C)C(=O)N[C@@H](CCC(N)=O)C(=O)O [P3181],1.9 ± 0.2,–,–
CC[C@H](C)[C@H](N)C(=O)N[C@@H](CCCNC(=N)N)C(=O)N[C@@H](Cc1ccccc1)C(=O)N[C@H](C(=O)N[C@@H](CC(=O)O)C(=O)NCC(=O)N[C@@H](C)C(=O)N[C@@H](CCCCN)C(=O)N[C@H](C(=O)N[C@H](C(=O)N[C@@H](CCSC)C(=O)N[C@H](C(=O)N[C@@H](CS)C(=O)N[C@@H](CO)C(=O)N[C@@H](C)C(=O)N[C@@H](CO)C(=O)NCC(=O)N[C@@H](CC(=O)O)C(=O)N[C@@H](Cc1ccccc1)C(=O)N[C@@H](CCC(=O)O)C(=O)N[C@@H](CCC(=O)O)C(=O)N[C@H](C(=O)N1CCC[C@H]1C(=O)N[C@@H](CCC(=O)O)C(=O)N[C@@H](CCC(=O)O)C(=O)N[C@@H](Cc1ccc(O)cc1)C(=O)N[C@@H](CC(C)C)C(=O)N[C@@H](CCC(N)=O)C(=O)O)[C@@H](C)CC)[C@@H](C)O)[C@@H](C)O)C(C)C)[C@@H](C)O [mini-hirudin 3],10 ± 1,–,–
CC[C@H](C)[C@H](NC(=O)[C@H](CCC(=O)O)NC(=O)[C@H](CCC(=O)O)NC(=O)[C@H](Cc1ccccc1)NC(=O)[C@H](CC(=O)O)NC(=O)CNC(=O)[C@H](CC(=O)O)NC(=O)[C@H](CC(N)=O)NC(=O)[C@H](Cc1c[nH]cn1)NC(=O)[C@H](CC(C)C)NC(=O)[C@H](CCC(N)=O)NC(=O)[C@@H]1CCCN1C(=O)[C@H](CCCNC(=N)N)NC(=O)[C@@H]1CCCN1C(=O)[C@@H](NC(=O)[C@@H](NC(=O)[C@H](CO)NC(=O)CNC(=O)[C@H]1CCCCN1C(=O)[C@H](CCCNC(=N)N)NS(=O)(=O)c1ccc(C(C)(C)C)cc1)C(C)C)C(C)C)C(=O)N1CCC[C@H]1C(=O)N[C@@H](CCC(=O)O)C(=O)N[C@@H](CCC(=O)O)C(=O)N[C@@H](Cc1ccc(O)cc1)C(=O)N[C@@H](CC(C)C)C(=O)N[C@@H](CCC(N)=O)C(=O)O [P3209],1.1,–,–
CC[C@H](C)[C@H](NC(=O)[C@H](CCC(=O)O)NC(=O)[C@H](CCC(=O)O)NC(=O)[C@H](Cc1ccccc1)NC(=O)[C@H](CC(=O)O)NC(=O)CNC(=O)[C@H](CO)NC(=O)CNC(=O)[C@H](CO)NC(=O)CNC(=O)[C@H](CO)NC(=O)CNC(=O)[C@H](CO)NC(=O)CNC(=O)[C@H](CO)NC(=O)CNC(=O)[C@H](CCCCN)NC(=O)CNC(=O)[C@H](CO)NC(=O)CNC(=O)[C@H](CO)NC(=O)CNC(=O)[C@H](CO)NC(=O)CNC(=O)[C@H](CO)NC(=O)CNC(=O)[C@H]1CCCCN1C(=O)[C@H](CCCNC(=N)N)NS(=O)(=O)c1ccc(C(C)(C)C)cc1)C(=O)N1CCC[C@H]1C(=O)N[C@@H](CCC(=O)O)C(=O)N[C@@H](CCC(=O)O)C(=O)N[C@@H](Cc1ccc(O)cc1)C(=O)N[C@@H](CC(C)C)C(=O)N[C@@H](CCC(N)=O)C(=O)O [P3174],–,1.6 ± 0.9,–
CC[C@H](C)[C@H](NC(=O)[C@H](CCC(=O)O)NC(=O)[C@H](CCC(=O)O)NC(=O)[C@H](Cc1ccccc1)NC(=O)[C@H](CC(=O)O)NC(=O)CNC(=O)[C@H](CO)NC(=O)CNC(=O)[C@H](CO)NC(=O)CNC(=O)[C@H](CO)NC(=O)CNC(=O)[C@H](CO)NC(=O)CNC(=O)[C@H](CO)NC(=O)CNC(=O)[C@H](CO)NC(=O)CNC(=O)[C@H](CO)NC(=O)CNC(=O)[C@H](CO)NC(=O)CNC(=O)[C@@H](N)CSSC[C@H](NC(=O)CNC(=O)[C@H]1CCCCN1C(=O)[C@H](CCCNC(=N)N)NS(=O)(=O)c1ccc(C(C)(C)C)cc1)C(=O)O)C(=O)N1CCC[C@H]1C(=O)N[C@@H](CCC(=O)O)C(=O)N[C@@H](CCC(=O)O)C(=O)N[C@@H](Cc1ccc(O)cc1)C(=O)N[C@@H](CC(C)C)C(=O)N[C@@H](CCC(N)=O)C(=O)O [P3172-P3165],1.1 ± 0.2,–,–
CC[C@H](C)[C@H](NC(=O)[C@H](CCC(=O)O)NC(=O)[C@H](CCC(=O)O)NC(=O)[C@H](Cc1ccccc1)NC(=O)[C@H](CC(=O)O)NC(=O)CNC(=O)[C@H](CO)NC(=O)[C@@H](NC(=O)[C@H](CCCCN)NC(=O)[C@H](CCC(=O)O)NC(=O)[C@H](Cc1ccc(OP(=O)(O)O)cc1)NC(=O)[C@H](Cc1c[nH]cn1)NC(=O)[C@@H]1CCCN1C(=O)[C@H](CO)NC(=O)CNC(=O)[C@H](CO)NC(=O)[C@@H](NC(=O)[C@H](CCCCN)NC(=O)[C@H](CCC(=O)O)NC(=O)[C@H](Cc1ccc(OP(=O)(O)O)cc1)NC(=O)[C@H](Cc1c[nH]cn1)NC(=O)[C@@H]1CCCN1C(=O)[C@H](CO)NC(=O)CNC(=O)[C@H]1CCCCN1C(=O)[C@H](CCCNC(=N)N)NS(=O)(=O)c1ccc(C(C)(C)C)cc1)C(C)C)C(C)C)C(=O)N1CCC[C@H]1C(=O)N[C@@H](CCC(=O)O)C(=O)N[C@@H](CCC(=O)O)C(=O)N[C@@H](Cc1ccc(O)cc1)C(=O)N[C@@H](CC(C)C)C(=O)N[C@@H](CCC(N)=O)C(=O)O [P3162],–,19 ± 1,–
CC[C@H](C)[C@H](NC(=O)[C@@H](NC(=O)[C@H](CC(C)C)NC(=O)[C@H](CO)NC(=O)[C@H](CCCCN)NC(=O)[C@H](CCCNC(=N)N)NC(=O)CNC(=O)[C@H]1CCCCN1C(=O)[C@H](CCCNC(=N)N)NS(=O)(=O)c1ccc(C(C)(C)C)cc1)[C@@H](C)O)C(=O)N[C@@H](Cc1ccc(O)cc1)C(=O)N[C@@H](C)C(=O)N[C@@H](CCC(N)=O)C(=O)N[C@H](C(=O)N[C@@H](CCC(N)=O)C(=O)N[C@@H](CCCCN)C(=O)NCC(=O)N[C@@H](CC(=O)O)C(=O)N[C@@H](Cc1ccccc1)C(=O)N[C@@H](CCC(=O)O)C(=O)N[C@@H](CCC(=O)O)C(=O)N[C@H](C(=O)N1CCC[C@H]1C(=O)N[C@@H](CCC(=O)O)C(=O)N[C@@H](CCC(=O)O)C(=O)N[C@@H](Cc1ccc(O)cc1)C(=O)N[C@@H](CC(C)C)C(=O)N[C@@H](CCC(N)=O)C(=O)O)[C@@H](C)CC)C(C)C [P3291],–,7 ± 1,reversal of thrombin inhibition
